This is an account of results in patent US20250009734A1, “METHODS OF INHIBITING FOXO1 FOR TREATMENT OF LYMPHATIC DISORDERS” (UNIVERSITY OF SOUTH FLORIDA, priority 2023, published 2025).

Test [1] addresses FOXO3 (Homo sapiens, UniProt O43524). As to conditions: Nagashima et al., 2010; cited from earlier work.
In test [2] the test system is human dermal lymphatic endothelial cells (hdLECs). The test can be described thus: Immunostaining of PROX1 and β-catenin localization in cultured hdLECs. Type of test: cell-based. Conditions: 0.5 μM AS for 48 hours, DMSO control: almost exclusively on the cell membrane. Here is the method: FIGS. 2A-2F. AS1842856 elevates protein expression of valve genes and promotes b-catenin nuclear localization in cultured hdLECs. (A) hdLECs were cultured under static condition and treated for 48 hours with 0.5 μM DMSO (vehicle control) or 0.5 μM AS treatment. Thereafter, proteins were extracted, and western blot perform for the indicated proteins. ACTB is the loading control. (B) Quantification results of indicated proteins in western blot from three independent experiments. (C-F) Immunostaining of cultured hdLECs for PROX1 and CTNNB1 protein. All values are mean±SEM. n=3 experiment repeats; ns=not significant; *p≤0.05, **p≤0.01, ***p≤0.001. Vehicle control: 0.5 μM DMSO for 48 hours treatment. AS1842856: 0.5 μM AS1842856 for 48 hours treatment. Cells were stained for PROX1 (green) and CTNNB1 (purple). (E) and (F) are the merged images for PROX1 and CTNNB1. Scale bar is 50 μm.
In cells, phosphorylated β-catenin is degraded in a destruction complex in the cytoplasm, but unphosphorylated β-catenin upon activation is translocated to the nucleus from the cytoplasm (Harada et al., 1999). It has been reported that β-catenin in the nucleus of LECs promotes the expression of valve-forming genes FOXC2 and PROX1 by binding to the promoter areas of these two genes (Cha et al., 2016). […]

Test [3] has as its target FOXO4 (Homo sapiens, UniProt P98177). As to conditions: Nagashima et al., 2010; cited from earlier work.
The target of test [4] is FOXO1 (Homo sapiens, UniProt Q12778). Conditions: binds to FOXO1 protein, prevents binding to promoter regions; Nagashima et al., 2010; cited from earlier work.
FOXO1, sequence (Q12778 whole entry, species assumed): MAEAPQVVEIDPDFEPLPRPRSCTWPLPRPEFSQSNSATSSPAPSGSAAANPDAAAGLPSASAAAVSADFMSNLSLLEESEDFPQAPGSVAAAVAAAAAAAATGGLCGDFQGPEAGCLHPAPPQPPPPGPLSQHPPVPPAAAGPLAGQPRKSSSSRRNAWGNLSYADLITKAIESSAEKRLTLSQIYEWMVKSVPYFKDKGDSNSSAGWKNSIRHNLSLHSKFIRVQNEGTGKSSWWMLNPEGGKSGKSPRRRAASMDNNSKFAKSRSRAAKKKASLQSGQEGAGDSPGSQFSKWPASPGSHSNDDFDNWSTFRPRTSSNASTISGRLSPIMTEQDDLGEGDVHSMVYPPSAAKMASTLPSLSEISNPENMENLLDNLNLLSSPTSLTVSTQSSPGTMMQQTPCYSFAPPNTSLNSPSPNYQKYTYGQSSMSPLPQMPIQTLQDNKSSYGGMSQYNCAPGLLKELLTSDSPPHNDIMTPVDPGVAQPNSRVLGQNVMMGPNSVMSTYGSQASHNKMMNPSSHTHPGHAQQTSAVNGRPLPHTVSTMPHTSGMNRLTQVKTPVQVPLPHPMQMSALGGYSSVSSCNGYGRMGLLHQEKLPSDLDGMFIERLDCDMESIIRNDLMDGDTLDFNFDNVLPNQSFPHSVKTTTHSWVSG

FOXO3, sequence (O43524 whole entry, species assumed): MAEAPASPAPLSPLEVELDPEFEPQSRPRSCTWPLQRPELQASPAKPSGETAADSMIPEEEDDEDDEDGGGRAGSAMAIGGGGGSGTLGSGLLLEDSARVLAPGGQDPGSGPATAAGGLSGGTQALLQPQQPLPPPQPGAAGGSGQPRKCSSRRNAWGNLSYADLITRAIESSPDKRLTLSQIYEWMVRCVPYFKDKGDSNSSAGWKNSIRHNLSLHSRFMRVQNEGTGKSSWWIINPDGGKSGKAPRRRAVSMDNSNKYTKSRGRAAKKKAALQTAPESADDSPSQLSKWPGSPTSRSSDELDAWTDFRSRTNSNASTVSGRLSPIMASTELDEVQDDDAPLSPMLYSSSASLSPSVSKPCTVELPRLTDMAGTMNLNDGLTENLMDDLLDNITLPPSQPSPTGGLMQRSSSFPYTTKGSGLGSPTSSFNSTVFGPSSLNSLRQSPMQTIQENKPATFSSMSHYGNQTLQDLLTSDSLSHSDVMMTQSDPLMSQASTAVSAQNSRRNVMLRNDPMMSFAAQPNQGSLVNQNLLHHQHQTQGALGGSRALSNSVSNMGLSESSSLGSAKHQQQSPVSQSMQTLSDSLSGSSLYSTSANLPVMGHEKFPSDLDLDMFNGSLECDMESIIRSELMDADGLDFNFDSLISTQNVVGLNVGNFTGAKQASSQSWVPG
FOXO4, sequence (P98177 whole entry, species assumed): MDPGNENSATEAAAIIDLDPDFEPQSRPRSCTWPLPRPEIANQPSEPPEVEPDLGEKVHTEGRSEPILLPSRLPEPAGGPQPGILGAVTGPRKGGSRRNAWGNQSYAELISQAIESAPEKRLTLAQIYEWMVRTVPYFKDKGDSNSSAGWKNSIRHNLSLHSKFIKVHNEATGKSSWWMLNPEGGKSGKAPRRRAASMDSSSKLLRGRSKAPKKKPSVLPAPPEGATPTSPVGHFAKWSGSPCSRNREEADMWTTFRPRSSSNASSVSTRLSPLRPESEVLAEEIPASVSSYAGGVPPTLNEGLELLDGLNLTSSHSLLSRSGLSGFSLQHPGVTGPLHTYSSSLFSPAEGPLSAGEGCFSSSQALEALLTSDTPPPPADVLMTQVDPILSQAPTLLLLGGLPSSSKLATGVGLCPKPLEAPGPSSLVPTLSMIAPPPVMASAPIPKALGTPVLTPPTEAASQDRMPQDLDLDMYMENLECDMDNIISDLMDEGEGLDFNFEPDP

Regarding `CCn1cc(C(=O)O)c(=O)c2c(N)c(F)c(NC3CCCCC3)cc21` [AS1842856], the “effect on inhibiting the activity of FOXO3” value in test [1] was “minimal effect”. Besides, the “localization of β-catenin (immunostaining)” value in test [2] is given as “a remarkable amount of β-catenin was in the nucleus”. Also, in test [3], the “effect on inhibiting the activity of FOXO4” value is “minimal effect”. For the same molecule, in test [4], the “effect on transcription activity of FOXO1 in the nucleus” value is listed as “reduces the transcription activity of FOXO1”.
